From patent US20230158025A1 (UNIVERSITY OF UTAH RESEARCH FOUNDATION, priority 2020, published 2023) come the findings set out here.

The structures appear in SMILES notation. Like-named read-outs stand apart in the source and are kept apart here.

For data set [1], the target named is recombinant human GALK1 (Homo sapiens, UniProt P51570). Kind of data set: hGALK1 biochemical activity assay (Kinase-Glo Plus, ATP depletion). In a few lines:
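Turnover is measured as ATP depletion by Kinase-Glo Plus luminescence after a 1 h room-temperature reaction. Compounds span 11 concentrations, 57.4 μM–0.97 nM, in final 20 mM HEPES pH 8.0 with 5 mM MgCl2. The substrate solution held 35 μM ATP; the added solution held 5 nM human or mouse GALK1 and 100 μM galactose.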

The target of data set [2] is recombinant mouse GALK1 (Mus musculus, UniProt Q9R0N0). Kind of data set: mGALK1 biochemical activity assay (Kinase-Glo Plus, ATP depletion). In a few lines:
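Recombinant GALK1 (5 nM) with 100 μM galactose; GALK1 turnover read as ATP depletion by Kinase-Glo Plus luminescence. Reaction ran 1 h at room temperature before detection reagent was added.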

A short description of data set [3]: PAMPA permeability.
The nature of data set [4]: aqueous kinetic solubility.
The nature of data set [5]: rat microsomal stability (RLM). The note with it: microsomal half-life.
Setting [6] is: recombinant human GALK1, Kinase-Glo Plus ATP depletion, read-out: hGALK.
Where [7] appears, read: recombinant mouse GALK1, Kinase-Glo Plus ATP depletion, read-out: mGALK.
Where [8] appears, read: recombinant mouse GALK1, Kinase-Glo Plus ATP depletion.
Where [9] appears, read: Tables 2-15, 35 μM ATP, 100 μM galactose, 1 h, bracketed figure after some values (e.g. −1.2) is undefined and not reported, read-out: hGALK IC50.
Where [10] appears, read: Tables 2-15, 35 μM ATP, 100 μM galactose, 1 h, bracketed figure after some values is undefined and not reported, read-out: mGALK IC50.

recombinant human GALK1, sequence (P51570 whole entry): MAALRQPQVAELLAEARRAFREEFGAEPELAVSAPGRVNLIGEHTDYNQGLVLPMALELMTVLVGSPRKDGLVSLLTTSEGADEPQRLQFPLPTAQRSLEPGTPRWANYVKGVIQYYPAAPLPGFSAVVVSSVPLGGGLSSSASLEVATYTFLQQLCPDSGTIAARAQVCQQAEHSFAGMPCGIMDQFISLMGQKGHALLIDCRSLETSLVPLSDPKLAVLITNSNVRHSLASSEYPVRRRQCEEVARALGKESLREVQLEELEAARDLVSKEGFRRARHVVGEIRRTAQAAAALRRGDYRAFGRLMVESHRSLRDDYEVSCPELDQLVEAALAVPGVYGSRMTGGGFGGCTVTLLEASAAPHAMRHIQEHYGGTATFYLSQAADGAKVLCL
recombinant mouse GALK1, sequence (Q9R0N0 whole entry): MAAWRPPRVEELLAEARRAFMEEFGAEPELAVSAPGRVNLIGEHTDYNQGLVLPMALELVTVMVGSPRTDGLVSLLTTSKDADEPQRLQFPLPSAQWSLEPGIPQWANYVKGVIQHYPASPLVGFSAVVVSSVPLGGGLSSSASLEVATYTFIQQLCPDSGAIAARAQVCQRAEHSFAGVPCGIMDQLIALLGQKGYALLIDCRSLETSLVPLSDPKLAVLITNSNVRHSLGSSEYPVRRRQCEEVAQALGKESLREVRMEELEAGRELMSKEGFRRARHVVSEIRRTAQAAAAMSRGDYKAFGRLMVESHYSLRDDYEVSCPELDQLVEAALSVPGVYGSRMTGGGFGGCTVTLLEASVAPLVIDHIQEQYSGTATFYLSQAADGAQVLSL

As to `CC1=C(C(=O)Nc2nnc(-c3cccnc3)s2)C(c2ccccc2Cl)N=C(Nc2nc3cc(F)ccc3o2)N1` (centres unmarked) [Compound 97, 4-(2-chlorophenyl)-2-((5-fluorobenzo[d]oxazol-2-yl)amino)-6-methyl-N-(5-(pyridin-3-yl)-1,3,4-thiadiazol-2-yl)-1,4-dihydropyrimidine-5-carboxamide], the IC50 was 5.44 µM in data set [1] (setting [6]) and 19.3 µM in data set [2] (setting [7]). Moreover, in data set [3], the “Perm. (1 × 10^−6 cm/sec)” value was <1.5 1 × 10^−6 cm/sec. The “Sol.” value in data set [4] is under 1 µg/mL. For the same compound, the “Metab. Stabil. (m)” value in data set [5] is on record as over 30 m.
In the same order, the values of `CC1=C(C(=O)Nc2nnc(-c3cccnc3)s2)C(c2ccccc2Cl)N=C(Nc2nc3cc(Cl)ccc3o2)N1` (centres unmarked) [Compound 98] are 6.11 µM, 19.3 µM, <3.4 1 × 10^−6 cm/sec, under 1 µg/mL and over 30 m.
Regarding `CC1=C(C(=O)Nc2nnc(-c3cccnc3)s2)C(c2ccccc2Cl)N=C(Nc2nc3ccc(C)cc3o2)N1` (centres unmarked) [Compound 99, 4-(2-chlorophenyl)-2-((6-methylbenzo[d]oxazol-2-yl)amino)-6-methyl-N-(5-(pyridin-3-yl)-1,3,4-thiadiazol-2-yl)-1,4-dihydropyrimidine-5-carboxamide], the “hGALK (μM)” value in data set [1] (recombinant human GALK1, Kinase-Glo Plus ATP depletion) was “in- active”. In addition, in data set [2] (setting [8]), the “mGALK (μM)” value is reported as “in- active”. For the same compound, in data set [3], the “Perm. (1 × 10^−6 cm/sec)” value was <2.9 1 × 10^−6 cm/sec. For the same compound, in data set [4], the “Sol.” value was under 1 µg/mL. The “Metab. Stabil. (m)” value in data set [5] is over 30 m.
With `CC1=C(C(=O)Nc2nnc(-c3cccnc3)s2)C(c2ccccc2Cl)N=C(Nc2nc3ccc(F)cc3o2)N1` (centres unmarked) [Compound 100, 4-(2-chlorophenyl)-2-((6-fluorobenzo[d]oxazol-2-yl)amino)-6-methyl-N-(5-(pyridin-3-yl)-1,3,4-thiadiazol-2-yl)-1,4-dihydropyrimidine-5-carboxamide], the IC50 in data set [1] (setting [6]) is 17.2 µM; in data set [2] (setting [7]) it was 38.5 µM. Moreover, the “Perm. (1 × 10^−6 cm/sec)” value in data set [3] is given as <9.9 1 × 10^−6 cm/sec. Moreover, the “Sol.” value in data set [4] is under 1 µg/mL. The “Metab. Stabil. (m)” value in data set [5] is over 30 m.
Consider `CC1=C(C(=O)Nc2cc(C(=O)O)ccn2)C(c2ccc(C)cc2Cl)N=C(Nc2nc3ncccc3o2)N1` (centres unmarked) [Compound 102, 2-(4-(2-chloro-4-methylphenyl)-6-methyl-2-(oxazolo[4,5-b]pyridin-2-ylamino)-1,4-dihydropyrimidine-5-carboxamido)isonicotinic acid], for which the IC50 in data set [1] (setting [9]) came out at 4.85 µM; in data set [1] (setting [6]), 4.85 µM; in data set [2] (setting [10]), 19.3 µM; in data set [2] (setting [7]), 19.3 µM. Further, in data set [3], the “Perm. (1 × 10^−6 cm/sec)” value is on record as <1 1 × 10^−6 cm/sec. Besides, the “Sol.” value in data set [4] was over 51 µg/mL. Moreover, the “Metab. Stabil. (m)” value in data set [5] is listed as over 30 m.
Regarding `CC1=C(C(=O)NCc2cnn(C)c2)C(c2ccc(C)cc2Cl)N=C(Nc2nc3cnccc3o2)N1` (centres unmarked) [Compound 104, 4-(2-chloro-4-methylphenyl)-6-methyl-N-((1-methyl-1H-pyrazol-4-yl)methyl)-2-(oxazolo[4,5-c]pyridin-2-ylamino)-1,4-dihydropyrimidine-5-carboxamide], the IC50 in data set [1] (setting [9]) worked out at 3.06 µM; in data set [1] (setting [6]) it was 3.06 µM; in data set [2] (setting [10]), 12.2 µM; in data set [2] (setting [7]), 12.2 µM. In addition, the “Perm. (1 × 10^−6 cm/sec)” value in data set [3] is recorded as 127.62 1 × 10^−6 cm/sec. Further, the “Sol.” value in data set [4] is over 49 µg/mL. For the same compound, the “Metab. Stabil. (m)” value in data set [5] came out at 5.12 m.
Consider `CC1=C(C(=O)NCc2cnn(C)c2)C(c2ccc(C)cc2Cl)N=C(Nc2nc3ncccc3o2)N1` (centres unmarked) [Compound 105, 4-(2-chloro-4-methylphenyl)-6-methyl-N-((1-methyl-1H-pyrazol-4-yl)methyl)-2-(oxazolo[4,5-b]pyridin-2-ylamino)-1,4-dihydropyrimidine-5-carboxamide], for which the IC50 in data set [1] (setting [9]) and in data set [1] (setting [6]) was 15.3 µM in each case. In addition, in data set [2] (Tables 2-15, 35 μM ATP, 100 μM galactose, 1 h, bracketed figure after some values is undefined and not reported), the “mGALK IC50” value was “inactive”. The “mGALK (μM)” value in data set [2] (setting [8]) is “in- active”. Besides, the “Perm. (1 × 10^−6 cm/sec)” value in data set [3] was 62.84 1 × 10^−6 cm/sec. Further, in data set [4], the “Sol.” value was over 49 µg/mL. In data set [5], the “Metab. Stabil. (m)” value was found to be 6.149 m.
